Measured values taken from patent US20240246960A1 (adMare Therapeutics Society, priority 2021, published 2024).
Like-named read-outs stand apart in the source and are kept apart here.

Assays:
DNA-PK = target: T1, DNA-PK (Homo sapiens, UniProt P78527); assay: DNA-PK Assay for Biochemical Enzymatic Inhibition (ADP Glo Kinase assay); details: Table 1
T1 construct: purchased Invitrogen PR9107A
How it was run: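 Human DNA-PK (25 ng) preincubated 15 min with compounds (ten three-fold dilutions) in HEPES pH 7.5, MgCl2, KCl, calf thymus DNA buffer, then substrate 434.4 μM and ATP 64.4 μM (final) for 60 min at room temperature. ADP-Glo luminescence; percent inhibition fitted by four-parameter regression for IC50.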

[1] = target: T2, pDNA-PK ser2056 induction in HCT116 spheroids (Homo sapiens, UniProt P78527); assay: Multicellular tumour spheroid + radiation, pDNA-PK inhibition, HCT116; type: cell-based; details: 20 Gy
T2 construct: endogenous in cells; host or cells: HCT116 multicellular tumour spheroids
How it was run: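 EC50 (μM) is concentration halving radiation-induced pDNA-PK ser2056, scored by fluorescent immunostaining of cryosections 2 h after 20 Gy. HCT116 tumour spheroids (~0.5 mm, stirred, 20% O2/5% CO2, 37 °C) exposed to serial dilutions from 10 or 5 μM to 3.5 nM starting 1 h before irradiation.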

[2] = Example 7, spheroid, cell line HCT115 [sic], 20% O2, read-out: EC50 (pDNA-PK inhibition, immunohistochemical endpoint)
[3] = Example 9 Study 2, 20% O2, read-out: Spheroid Cell line: HCT116 Immunohistochemical endpoint pDNA-PK inhibition EC50
[4] = Example 8, spheroid, read-out: Cell line: HCT116 Immunohistochemical endpoint pDNA-PK inhibition EC50

Row | SMILES | IC50 (DNA-PK) [nM] | EC50 [1, 2] [nM] | EC50 [1, 3] [nM] | EC50 [1, 4] [nM]
1 | c1cnc2cc(N3CCOCC3)nc(O[C@H]3CC[C@@H](Nc4ncc5sccc5n4)CC3)c2c1 [Compound 84, N-((1s,4s)-4-((7-Morpholino-1,6-naphthyridin-5-yl)oxy)cyclohexyl)thieno[3,2-d]pyrimidin-2-amine] | < 0.5 | 500 to 1000 | 500 to 1000 | 
2 | c1cnc2cc(N3CCOCC3)nc(O[C@H]3CC[C@@H](Nc4ncc5[nH]ccc5n4)CC3)c2c1 [Compound 85, N-((1s,4s)-4-((7-Morpholino-1,6-naphthyridin-5-yl)oxy)cyclohexyl)-5H-pyrrolo[3,2-d]pyrimidin-2-amine] | < 0.5 | 10 to 500 | 10 to 500 | 
3 | Cn1ccc2nc(N[C@H]3CC[C@@H](Oc4nc(N5CCOCC5)cc5ncccc45)CC3)ncc21 [Compound 87, 5-Methyl-N-((1s,4s)-4-((7-morpholino-1,6-naphthyridin-5-yl)oxy)cyclohexyl)-5H-pyrrolo[3,2-d]pyrimidin-2-amine] | < 0.5 | 10 to 500 | 10 to 500 | 
4 | Cn1cnc2cnc(N[C@H]3CC[C@@H](Oc4nc(N5CCOCC5)cc5ncccc45)CC3)nc21 [Compound 88, 9-Methyl-N-((1s,4s)-4-((7-morpholino-1,6-naphthyridin-5-yl)oxy)cyclohexyl)-9H-purin-2-amine] | 0.5 to 1 | 10 to 500 | 10 to 500 | 
5 | c1cnc2cc(N3CCOCC3)nc(O[C@H]3CC[C@@H](Nc4ccn5nccc5n4)CC3)c2c1 [Compound 89, N-((1s,4s)-4-((7-Morpholino-1,6-naphthyridin-5-yl)oxy)cyclohexyl)pyrazolo[1,5-a]pyrimidin-5-amine] | 0.5 to 1 | 500 to 1000 | 500 to 1000 | 
6 | O=C(N[C@H]1CC[C@@H](Oc2nc(N3CCOCC3)cc3ncccc23)CC1)c1ccncc1 [Compound 113, N-((1s,4s)-4-((7-morpholino-1,6-naphthyridin-5-yl)oxy)cyclohexyl)isonicotinamide] | < 0.5 | 500 to 1000 | 500 to 1000 | 
7 | O=C(N[C@H]1CC[C@@H](Oc2nc(N3CCOCC3)cc3ncccc23)CC1)c1cccnc1 [Compound 115, N-((1s,4s)-4-((7-morpholino-1,6-naphthyridin-5-yl)oxy)cyclohexyl)nicotinamide] | < 0.5 | 1000 to 10000 | 1000 to 10000 | 
8 | O=C(N[C@H]1CC[C@@H](Oc2nc(N3CCOCC3)cc3ncccc23)CC1)c1ccncn1 [Compound 118, N-((1s,4s)-4-((7-morpholino-1,6-naphthyridin-5-yl)oxy)cyclohexyl)pyrimidine-4-carboxamide] | 0.5 to 1 | 1000 to 10000 | 1000 to 10000 | 
9 | O=C(N[C@H]1CC[C@@H](Oc2nc(N3CCOCC3)cc3ncccc23)CC1)c1ccnnc1 [Compound 121, N-((1s,4s)-4-((7-morpholino-1,6-naphthyridin-5-yl)oxy)cyclohexyl)pyridazine-4-carboxamide] | 0.5 to 1 | 1000 to 10000 | 1000 to 10000 | 
10 | O=C(N[C@H]1CC[C@@H](Oc2nc(N3CCOCC3)cc3ncccc23)CC1)c1cncnc1 [Compound 122, N-((1s,4s)-4-((7-Morpholino-1,6-naphthyridin-5-yl)oxy)cyclohexyl)pyrimidine-5-carboxamide] | 1 to 10 | 1000 to 10000 | 1000 to 10000 | 1000 to 10000
11 | O=C(N[C@H]1CC[C@@H](Oc2nc(N3CCOCC3)cc3ncccc23)CC1)c1ncccn1 [Compound 123, N-((1s,4s)-4-((7-Morpholino-1,6-naphthyridin-5-yl)oxy)cyclohexyl)pyrimidine-2-carboxamide] | < 0.5 | 500 to 1000 | 500 to 1000 | 500 to 1000
12 | O=C(N[C@H]1CC[C@@H](Oc2nc(N3CCOCC3)cc3ncccc23)CC1)c1ccco1 [Compound 132, N-((1s,4s)-4-((7-Morpholino-1,6-naphthyridin-5-yl)oxy)cyclohexyl)furan-2-carboxamide] | < 0.5 | 10 to 500 | 10 to 500 | 10 to 500
13 | O=C(N[C@H]1CC[C@@H](Oc2nc(N3CCOCC3)cc3ncccc23)CC1)c1ccc(C(F)(F)F)o1 [Compound 133, N-((1s,4s)-4-((7-Morpholino-1,6-naphthyridin-5-yl)oxy)cyclohexyl)-5-(trifluoromethyl)furan-2-carboxamide] | 0.5 to 1 | 1000 to 10000 | 1000 to 10000 | 1000 to 10000
14 | O=C(N[C@H]1CC[C@@H](Oc2nc(N3CCOCC3)cc3ncccc23)CC1)c1nccs1 [Compound 135, N-((1s,4s)-4-((7-morpholino-1,6-naphthyridin-5-yl)oxy)cyclohexyl)thiazole-2-carboxamide] | < 0.5 | 1000 to 10000 | 1000 to 10000 | 
15 | O=C(N[C@H]1CC[C@@H](Oc2nc(N3CCOCC3)cc3ncccc23)CC1)c1cc[nH]c1 [Compound 140, N-((1s,4s)-4-((7-morpholino-1,6-naphthyridin-5-yl)oxy)cyclohexyl)-1H-pyrrole-3-carboxamide] | < 0.5 | 10 to 500 | 10 to 500 | 
16 | O=C(N[C@H]1CC[C@@H](Oc2nc(N3CCOCC3)cc3ncccc23)CC1)c1ncco1 [Compound 142, N-((1s,4s)-4-((7-morpholino-1,6-naphthyridin-5-yl)oxy)cyclohexyl)oxazole-2-carboxamide] | 0.5 to 1 | 1000 to 10000 | 1000 to 10000 | 
17 | O=C(N[C@H]1CC[C@@H](Oc2nc(N3CCOCC3)cc3ncccc23)CC1)c1c[nH]cn1 [Compound 144, N-((1s,4s)-4-((7-morpholino-1,6-naphthyridin-5-yl)oxy)cyclohexyl)-1H-imidazole-4-carboxamide] | 0.5 to 1 | 1000 to 10000 | 1000 to 10000 | 
18 | CS(=O)(=O)Nc1cnc2cc(N3CCOCC3)nc(O[C@H]3CC[C@@H](n4ccnc4)CC3)c2c1 [Compound 161, N-(5-(((1s,4s)-4-(1H-imidazol-1-yl)cyclohexyl)oxy)-7-morpholino-1,6-naphthyridin-3-yl)methanesulfonamide] | < 0.5 | 1000 to 10000 | 1000 to 10000 | 1000 to 10000
19 | CS(=O)(=O)Nc1cnc2cc(N3CCOCC3)nc(O[C@H]3CC[C@@H](Nc4ncccn4)CC3)c2c1 [Compound 185, N-(7-morpholino-5-(((1s,4s)-4-(pyrimidin-2-ylamino)cyclohexyl)oxy)-1,6-naphthyridin-3-yl)methanesulfonamide] | < 0.5 | 10 to 500 | 10 to 500 | 
20 | COc1cnc(N[C@H]2CC[C@@H](Oc3nc(N4CCOCC4)cc4ncc(NS(C)(=O)=O)cc34)CC2)nc1 [Compound 203, N-(5-(((1s,4s)-4-((5-methoxypyrimidin-2-yl)amino)cyclohexyl)oxy)-7-morpholino-1,6-naphthyridin-3-yl)methanesulfonamide] | < 0.5 | 10 to 500 | 10 to 500 | 
21 | CS(=O)(=O)Nc1cnc2cc(N3CCOCC3)nc(O[C@H]3CC[C@@H](NC(=O)c4ncco4)CC3)c2c1 [Compound 205, N-((1s,4s)-4-((3-(methylsulfonamido)-7-morpholino-1,6-naphthyridin-5-yl)oxy)cyclohexyl)oxazole-2-carboxamide] | 0.5 to 1 | 1000 to 10000 | 1000 to 10000 | 
